Assay: xn = mol fraction of the nth substance listed

NCCNCCN + CCO
viscosity [mPa·s], 100 kPa
Conditions	x2 = 0.1023	x2 = 0.2001	x2 = 0.3566	x2 = 0.492	x2 = 0.6001	x2 = 0.6952	x2 = 0.7703	x2 = 0.8378	x2 = 0.897	x2 = 0.9523
298.15 K	5.92	5.97	5.63	5.02	4.36	3.7	3.08	2.51	1.97	1.49
303.15 K	4.85	4.98	4.76	4.25	3.74	3.17	2.69	2.2	1.76	1.34
308.15 K	4.21	4.33	4.13	3.69	3.24	2.79	2.4	1.99	1.62	1.24

Oc1cccc(O)c1 + CCO
Conditions	viscosity [mPa·s]
323.15 K, 101 kPa, x1 = 0.07	1.265

Oc1cccc2ccccc12 + CCO
viscosity [mPa·s], 101 kPa
Conditions	x1 = 0.03	x1 = 0.06	x1 = 0.09	x1 = 0.12	x1 = 0.15
293.15 K	1.425	1.638	1.885	2.205	2.538
303.15 K	1.158	1.337	1.523	1.733	1.968
313.15 K	0.964	1.103	1.251	1.417	1.6
323.15 K	0.795	0.91	1.048	1.186	1.339

CCCCOCCOCCOCCCC + CCOC(=O)OCC
viscosity [mPa·s], 101.3 kPa
Conditions	298.15 K	308.15 K	318.15 K
x1 = 0.0131	0.771	0.675	0.587
x1 = 0.0338	0.806	0.699	0.603
x1 = 0.0756	0.864	0.751	0.638
x1 = 0.1533	0.976	0.842	0.707
x1 = 0.2472	1.118	0.949	0.792
x1 = 0.3392	1.245	1.056	0.871
x1 = 0.4137	1.359	1.14	0.94
x1 = 0.425	1.379	1.153	0.95
x1 = 0.4831	1.457	1.22	1.002
x1 = 0.6085	1.63	1.357	1.105
x1 = 0.7927	1.892	1.556	1.255
x1 = 0.8959	2.018	1.656	1.328
x1 = 0.954	2.116	1.734	1.383

Oc1cccc(O)c1O + CC[N+](CC)(CC)CC.[Br-]
101.3 kPa, x2 = 0.333
Conditions	viscosity [mPa·s]
293.15 K	46000
298.15 K	32000
303.15 K	23000
308.15 K	16000
313.15 K	10500
318.15 K	7500
323.15 K	5500

C1=Cc2cccc3cccc1c23 + CO
viscosity [mPa·s], 101 kPa
Conditions	298.15 K	303.15 K	308.15 K	313.15 K	318.15 K
x1 = 0.00471	0.5715	0.5301	0.494	0.4598	0.436
x1 = 0.00731	–	0.5362	0.5036	0.4714	0.4405

Reference: the CheMixHub viscosity set
